For data set [1], the system named is HeLa. Briefly: Induction of EGFP fused Htt Q145 mutant exon 1 (unknown origin) degradation expressed in human HeLa cells assessed as HSP70/CHIP recruitment based proteosome mediated mHtt exon 1-Q145 degradation at 10 uM measured after 24 hrs by Western blot analysis. The format is cell-based. On the technique in general: Immunoblotting shows a protein as a band on a membrane.

For data set [2], the system named is HeLa. The data set can be described thus: Induction of EGFP fused Htt Q145 mutant exon 1 (unknown origin) degradation expressed in human HeLa cells assessed as HSP70/CHIP recruitment based proteosome mediated mHtt exon 1-Q145 degradation at higher concentration measured after 24 hrs by Western blot analysis. It is filed as cell-based.
In data set [3] the test system is HeLa. The data set can be described thus: Induction of EGFP fused Htt Q145 mutant exon 1 (unknown origin) degradation expressed in human HeLa cells assessed as HSP70/CHIP recruitment based proteosome mediated mHtt exon 1-Q145 degradation at 10 uM measured after 24 to 48 hrs by Western blot analysis. The format is cell-based. To be noted: time 24-48 hrs.
Data set [4] has as its system Huntingtin (Homo sapiens), P42858 [UNDEFINED MUTATION]. The data set can be described thus: Induction of mutant Htt (unknown origin) degradation expressed in human fibroblasts cells assessed as HSP70/CHIP recruitment based proteosome mediated mHtt degradation by western blot analysis. The format is cell-based. To be noted: Fibroblast.
Data set [5] concerns HeLa. The data set can be described thus: Induction of EGFP fused Htt Q145 mutant exon 1 (unknown origin) degradation expressed in human HeLa cells assessed as HSP70/CHIP recruitment based proteosome mediated decrease in aggregate foci at 10 uM incubated for 24 hrs by Hoechst33342 staining based fluorescence microscopic analysis. The format is cell-based. The arrangement: scale not given: the % may be the effect or the level left.

For data set [6], the system named is HeLa. The data set can be described thus: Induction of EGFP fused Htt Q145 mutant exon 1 (unknown origin) degradation expressed in human HeLa cells assessed as HSP70/CHIP recruitment based proteosome mediated mHtt exon 1-Q145 degradation at 10 uM preincubated with geldanamycin for 6 hrs and measured after 24 hrs by Western blot analysis. The format is cell-based.

Data set [7] has as its system HeLa. Briefly: Induction of EGFP fused Htt Q145 mutant exon 1 (unknown origin) degradation expressed in human HeLa cells assessed as HSP70/CHIP recruitment based proteosome mediated mHtt exon 1-Q145 degradation at 5 uM measured after 24 hrs by Western blot analysis. It is filed as cell-based.
A short description of data set [8]: Apparent permeability across apical to basolateral side in human Caco-2 cells at 10 uM. It is filed as ADME, cell-based. Particulars: for Papp A→B at 10 µM: Caco-2. For orientation: Caco-2 monolayers are a common model of the intestinal barrier.
A short description of data set [9]: Efflux ratio of apparent permeability across basolateral to apical side over apical to basolateral side in human Caco-2 cells at 10 uM. It is filed as ADME, cell-based. Particulars: for efflux ratio at 10 µM: Caco-2.
Data set [10] deals with HeLa. The data set can be described thus: Induction of EGFP fused Htt Q145 mutant exon 1 (unknown origin) degradation expressed in human HeLa cells assessed as HSP70/CHIP recruitment based proteosome mediated mHtt exon 1-Q145 degradation at 10 uM measured after 24 hrs by Western blot analysis in the presence of bortezomib. It is filed as cell-based.
The subject of data set [11] is HeLa. Briefly: Induction of EGFP fused Htt Q23 mutant exon 1 (unknown origin) degradation expressed in human HeLa cells assessed as HSP70/CHIP recruitment based proteosome mediated mHtt exon 1-Q23 degradation at 1 to 10 uM measured after 48 hrs by Western blot analysis. Particulars: dose 1-10 µM. It is filed as cell-based.
Data set [12] can be described thus: Apparent permeability across basolateral to apical side in human Caco-2 cells at 10 uM. It is filed as ADME, cell-based. To be noted: for Papp B→A at 10 µM: Caco-2.
The nature of data set [13]: Ratio of drug concentration in brain to plasma in C57BL/6J mouse at 0.1 to 0.7 mg/kg, iv measured after 4 hrs. The format is ADME, organism-based. To be noted: brain and plasma, dose 0.1-0.7 mg/kg.

Activity calls are given as the source filed them. No cut-off for these calls is given here.

Chain of Huntingtin (Homo sapiens), P42858 [UNDEFINED MUTATION] (P42858 whole entry, looked up, change not shown, the tested form may be a part): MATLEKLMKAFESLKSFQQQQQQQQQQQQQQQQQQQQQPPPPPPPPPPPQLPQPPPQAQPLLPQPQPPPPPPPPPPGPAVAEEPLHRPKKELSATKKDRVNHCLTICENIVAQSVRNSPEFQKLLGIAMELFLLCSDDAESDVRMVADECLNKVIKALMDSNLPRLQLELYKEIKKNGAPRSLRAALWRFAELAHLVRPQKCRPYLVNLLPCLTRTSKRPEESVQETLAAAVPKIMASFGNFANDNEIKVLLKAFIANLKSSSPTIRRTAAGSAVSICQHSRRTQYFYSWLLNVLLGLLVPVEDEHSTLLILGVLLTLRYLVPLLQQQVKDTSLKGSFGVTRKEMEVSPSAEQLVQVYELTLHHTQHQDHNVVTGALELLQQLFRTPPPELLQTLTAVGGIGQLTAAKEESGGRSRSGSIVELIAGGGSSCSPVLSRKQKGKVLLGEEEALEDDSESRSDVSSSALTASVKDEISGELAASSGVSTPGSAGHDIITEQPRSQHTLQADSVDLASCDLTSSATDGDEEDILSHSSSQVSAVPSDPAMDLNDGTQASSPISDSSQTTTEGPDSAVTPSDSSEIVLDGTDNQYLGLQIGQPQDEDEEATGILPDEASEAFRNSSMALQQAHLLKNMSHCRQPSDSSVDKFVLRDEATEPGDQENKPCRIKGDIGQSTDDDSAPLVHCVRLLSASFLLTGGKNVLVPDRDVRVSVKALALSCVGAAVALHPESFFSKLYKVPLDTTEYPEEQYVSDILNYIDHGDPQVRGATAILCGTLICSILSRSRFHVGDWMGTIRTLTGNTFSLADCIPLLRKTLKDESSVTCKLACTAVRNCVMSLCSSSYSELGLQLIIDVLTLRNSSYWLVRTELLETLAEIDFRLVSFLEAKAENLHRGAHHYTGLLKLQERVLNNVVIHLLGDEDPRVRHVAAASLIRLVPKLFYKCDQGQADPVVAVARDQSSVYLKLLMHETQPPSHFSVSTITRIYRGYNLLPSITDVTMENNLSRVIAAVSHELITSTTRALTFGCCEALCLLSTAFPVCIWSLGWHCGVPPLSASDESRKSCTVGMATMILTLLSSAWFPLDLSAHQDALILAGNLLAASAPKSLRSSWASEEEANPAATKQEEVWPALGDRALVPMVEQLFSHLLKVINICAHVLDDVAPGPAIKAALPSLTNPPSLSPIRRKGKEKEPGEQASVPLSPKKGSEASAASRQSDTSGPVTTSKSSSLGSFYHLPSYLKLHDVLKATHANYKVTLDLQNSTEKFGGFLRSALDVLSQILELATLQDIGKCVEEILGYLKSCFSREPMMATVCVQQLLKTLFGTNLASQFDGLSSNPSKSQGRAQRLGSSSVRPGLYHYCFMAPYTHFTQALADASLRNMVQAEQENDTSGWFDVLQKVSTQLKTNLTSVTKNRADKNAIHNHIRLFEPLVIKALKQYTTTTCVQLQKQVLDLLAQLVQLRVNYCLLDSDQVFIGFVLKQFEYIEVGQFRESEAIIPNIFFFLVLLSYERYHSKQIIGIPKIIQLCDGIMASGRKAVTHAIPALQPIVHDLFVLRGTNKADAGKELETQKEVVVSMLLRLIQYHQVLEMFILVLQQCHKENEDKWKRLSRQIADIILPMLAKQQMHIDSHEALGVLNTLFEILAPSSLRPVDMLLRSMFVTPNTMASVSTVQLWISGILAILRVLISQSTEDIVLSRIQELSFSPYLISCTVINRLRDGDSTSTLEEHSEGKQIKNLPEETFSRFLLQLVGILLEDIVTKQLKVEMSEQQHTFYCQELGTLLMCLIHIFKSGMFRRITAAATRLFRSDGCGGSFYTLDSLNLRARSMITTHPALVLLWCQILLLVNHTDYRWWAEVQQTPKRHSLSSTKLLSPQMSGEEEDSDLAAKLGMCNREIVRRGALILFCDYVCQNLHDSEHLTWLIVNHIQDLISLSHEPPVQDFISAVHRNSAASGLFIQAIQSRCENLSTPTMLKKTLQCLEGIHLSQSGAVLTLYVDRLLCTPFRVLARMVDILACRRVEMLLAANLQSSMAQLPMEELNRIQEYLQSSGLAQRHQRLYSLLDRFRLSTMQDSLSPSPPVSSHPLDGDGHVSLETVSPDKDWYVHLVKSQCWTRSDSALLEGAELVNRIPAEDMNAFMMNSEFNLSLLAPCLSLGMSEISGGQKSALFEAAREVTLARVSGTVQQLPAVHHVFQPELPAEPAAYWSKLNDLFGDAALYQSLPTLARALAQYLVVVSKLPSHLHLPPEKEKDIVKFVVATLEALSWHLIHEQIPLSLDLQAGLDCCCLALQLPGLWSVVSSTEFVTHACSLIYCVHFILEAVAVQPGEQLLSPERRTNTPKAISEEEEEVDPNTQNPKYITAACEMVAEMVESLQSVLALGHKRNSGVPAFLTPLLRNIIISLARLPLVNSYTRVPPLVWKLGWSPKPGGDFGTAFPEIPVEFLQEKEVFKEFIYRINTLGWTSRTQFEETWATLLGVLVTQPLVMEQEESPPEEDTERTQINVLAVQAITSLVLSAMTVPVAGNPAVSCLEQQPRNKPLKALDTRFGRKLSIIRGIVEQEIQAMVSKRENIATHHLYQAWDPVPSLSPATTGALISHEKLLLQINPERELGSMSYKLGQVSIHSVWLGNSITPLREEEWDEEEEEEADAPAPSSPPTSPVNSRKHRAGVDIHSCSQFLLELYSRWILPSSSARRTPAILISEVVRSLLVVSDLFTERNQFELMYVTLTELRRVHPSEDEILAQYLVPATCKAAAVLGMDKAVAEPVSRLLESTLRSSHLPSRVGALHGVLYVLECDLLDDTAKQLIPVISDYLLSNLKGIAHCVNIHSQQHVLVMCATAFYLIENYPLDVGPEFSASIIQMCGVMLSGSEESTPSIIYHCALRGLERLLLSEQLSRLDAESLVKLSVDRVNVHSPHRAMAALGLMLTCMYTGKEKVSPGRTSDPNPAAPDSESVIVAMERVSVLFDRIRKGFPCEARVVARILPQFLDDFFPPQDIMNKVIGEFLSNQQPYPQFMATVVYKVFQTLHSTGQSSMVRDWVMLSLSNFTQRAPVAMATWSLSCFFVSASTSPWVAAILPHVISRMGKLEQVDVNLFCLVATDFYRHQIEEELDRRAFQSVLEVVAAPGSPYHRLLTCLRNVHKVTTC

As to `CN(C)c1ccc(/N=N/c2nc3ccc(O)cc3s2)cc1`, the result in data set [1] was inactive.

For `CN(C)c1ccc(/N=N/c2nc3ccc(OCCOCCOCCOCCOC(c4ccccc4)c4ccccc4)cc3s2)cc1`, in [2], the result was Active.

A word on the Papp A→B: it is how fast a substance crosses the layer from the apical side. As usually defined, the efflux ratio is the permeability from basolateral to apical divided by that in the opposite direction, in the common usage. Usually Papp B→A stands for how fast a substance crosses the layer from the basolateral side. `CN(C)c1ccc(/N=N/c2nc3ccc(OCCOCCOCCOCCOC45CC6CC(CC(C6)C4)C5)cc3s2)cc1`: the outcome in [3] and in data set [6] was Active. For the same compound, the Activity entry was “Dose-Dependent Effect” in data set [4] and 60% in [5]. Moreover, the outcome in [7], in [10] and in data set [11] was inactive. The Papp A→B at 10 µM in data set [8] was determined as 0.98 nm/s. The efflux ratio at 10 µM in data set [9] worked out at 1.2. For the same compound, the apparent permeability from basolateral to apical (Papp B→A) at 10 µM in [12] was 1.18 nm/s.

As for `CN(C)c1ccc(/N=N/c2nc3ccc(OCCOCCOCCOCCOc4cccc5ccccc45)cc3s2)cc1`, the result in [2] was Active.

On to `CCCCCC(CCCCC)OCCOCCOCCOCCOc1ccc2nc(/N=N/c3ccc(N(C)C)cc3)sc2c1`, for which, in [2], the result was Active. For the same compound, the Papp was 2.46 10^-6 cm/s in data set [8] (caco-2, 10 µM) and 0.241 10^-6 cm/s in [12] (caco-2, 10 µM). Further, in [9] (caco-2, 10 µM), the Ratio stood at 0.241.

Usually Kp stands for the ratio of the level in a tissue or fluid to that in plasma or blood. Consider `CN(C)c1ccc(/N=N/c2nc3ccc(OCCOCCOC45CC6CC(CC(C6)C4)C5)cc3s2)cc1`, for which the partition ratio (Kp) at 4 h in [13] was found to be 4.89. For the same compound, the Papp B→A at 10 µM in data set [12] worked out at 47.1 nm/s.

With `CC(C)C[C@H](NC(=O)[C@@H](O)[C@H](N)Cc1ccccc1)C(=O)NCCOCCOCCOc1ccc2nc(/N=N/c3ccc(N(C)C)cc3)sc2c1`, the Papp A→B at 10 µM in data set [8] is 10.3 nm/s. The efflux ratio at 10 µM in [9] turned out to be 0.19. Moreover, the Papp B→A at 10 µM in data set [12] amounted to 1.96 nm/s.

In the case of `OCCOCCOCCOCCOC12CC3CC(CC(C3)C1)C2`, the outcome in data set [1] was inactive.

`CN(C)c1ccc(/N=N/c2nc3ccc(OCCOCCOCCOCCOC45CC6CC7C8CC(CC74)CC5C8C6)cc3s2)cc1`: in data set [13], the Kp at 4 h was found to be 0.13. Also, the Activity in data set [7] is 60%. Further, the Papp A→B at 10 µM in [8] was determined as 53.2 nm/s. In addition, the efflux ratio at 10 µM in [9] was 0.235. The Papp B→A at 10 µM in [12] was 12.5 nm/s.

(Values after ChEMBL document CHEMBL5038672, “Conversion of a PROTAC Mutant Huntingtin Degrader into Small-Molecule Hydrophobic Tags Focusing on Drug-like Properties” (ACS Med Chem Lett, 2022).)
